Laboratory results from patent US4490527A, “Benzo-fused heterocyclic anti-ulcer agents” (American Home Products Corporation, priority 1983, dated 1984).
Entries after “also recorded” stand apart in the source; their conditions may differ. Structures can show the parent of a compound that is named as a salt. Where two headings read alike, the source gives them in different places.

Assays:
gastric acid secretion [1] = assay: gastric secretion in the rat, modified Shay procedure of pylorus ligation; type: in vivo; conditions: intraduodenal, 4 h, i.d., four hours after ligation, read-out: % Inhibition (of acid output)
Description: The procedure for testing gastric secretion in the rat, a modification of the procedure of Shay et al., Gastroenterology, 26, 906-13 (1954) is carried out as follows: Male Charles River rats weighing 200-300 grams are deprived of food but not water for 24 hours prior to use. Water is, however, withheld during the experiment. The rats are weighed, anesthetized, and the pylorus ligated according to the method of Shay et al. Treatment or vehicle control is then administered interduodenally (i.d.). Rats are housed 2/cage and sacrificed with CO2 four hours after ligation. The stomachs are removed, rinsed, and contents emptied into a graduated centrifuge tube. The tubes are centrifuged for 20 minutes at 2,000 RPM and the volume of gastric juice recorded. Any samples obviously contaminated by feces, food or hemolysis are eliminated. An aliquot of each is frozen for later analysis of Na^+, K^+ and Cl^- concentration. The pH is measured and 1 ml. of gastric juice is titrated with 0.1N NaOH to a pH of 7.0-7.4. Titratable acid output is calculated in microequivalents and the percent inhibition of acid output is calculated as follows: [formula]

H2 histamine receptors = H2 histamine receptors (Cavia porcellus, UniProt P47747); assay: cell-based; parameters: species or system guinea pig; conditions: vs histamine dose-response, 32° C., pH 7.4
H2 histamine receptors, sequence (P47747 whole entry): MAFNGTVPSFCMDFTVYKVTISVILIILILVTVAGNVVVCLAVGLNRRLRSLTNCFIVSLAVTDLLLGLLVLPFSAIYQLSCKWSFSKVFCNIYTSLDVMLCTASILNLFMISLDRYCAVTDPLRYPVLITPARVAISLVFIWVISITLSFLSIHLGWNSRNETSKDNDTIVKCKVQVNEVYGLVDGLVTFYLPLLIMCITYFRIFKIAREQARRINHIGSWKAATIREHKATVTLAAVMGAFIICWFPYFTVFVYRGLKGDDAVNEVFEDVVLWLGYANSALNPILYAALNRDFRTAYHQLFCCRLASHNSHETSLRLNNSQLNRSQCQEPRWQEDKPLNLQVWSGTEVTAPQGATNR
Description: The guinea pig heart atrium test is carried out as follows:
A guinea pig right atrium is suspended at 1 g. tension (isometric) in a thermostatically controlled (32° C.) tissue bath (10 ml) containing oxygenated (95% O2 ; 5% CO2) Krebs-Haenseleit buffer (pH 7.4). The tissue is allowed to stabilize over 1 hour. Individual contractions are recorded with a force-displacement transducer through a strain gauge coupler. A control dose-response curve to histamine in the above described tissue bath is obtained after which the tissue is washed 3 times and allowed to re-equilibrate to basal rate. The test compound is added to the tissue bath at the desired final concentration. Thirty minutes after addition of the compound, a fresh histamine dose response curve is again obtained. Then the response to histamine in the presence of antagonist is compared to the histamine control response. This procedure is repeated, using fresh tissues, for each concentration of antagonist tested. […] Cimetidine is used as the standard for this test.

gastric acid secretion [2] = assay: inhibition of secretion of acidic gastric juice in dogs (Pavlov gastric pouch, fed); type: in vivo, dog (beagle); conditions: for ED50: Canis lupus familiaris, po, read-out: ID50 (dose at which there is obtained a 50% inhibition of the total gastric acid output)
Description: The procedure for testing the ability of the compounds of the invention to inhibit the secretion of acidic gastric juice in dogs is as follows: A female pure bred beagle (7-10 kg) having Pavlov gastric pouches is fasted overnight with water ad lib. The animal is orally dosed and thirty minutes later it is fed to induce gastric acid secretions. Gastric acid samples are then collected every 15 minutes. The volume of each sample is measured and aliquots are titrated to neutrality with 0.1N NaOH to determine acid concentration.

[3] = limitation noted in patients; cited from earlier work
[4] = 30 min after addition, results of three experiments, read-out: pA2 Value (apparent dissociation constant of the H2 antagonist) (converted)
[5] = orally dosed, fed thirty minutes later

| Compound | Kb (H2 histamine receptors; [4]) | inhibition in vivo at 4 mg/kg (gastric acid secretion [1]) | ED50 (gastric acid secretion [2]; [5]) | inhibition in vivo at 8 mg/kg (gastric acid secretion [1]) | other results |
| --- | --- | --- | --- | --- | --- |
| CN(C)Cc1ccc(CSCCNC2=NS(=O)(=O)c3ccccc32)o1 [Example 1, N-[2-[[[5-[(dimethylamino)methyl]2-furanyl]methyl]thio]ethyl]-1,2-benzisothiazol-3-amine 1,1-dioxide] | 100 nM | 79% | 0.8 mg/kg | – | – |
| Cl.O=S1(=O)N=C(NCCCOc2ccc(CN3CCCCC3)cc2)c2ccccc21 [Example 38, N-[3-[4-[(1-piperidinyl)methyl]phenoxy]propyl]-1,2-benzisothiazol-3-amine 1,1-dioxide, hydrochloride] | 23.4 nM | 52% | 2 mg/kg | – | inhibition in vivo at 1 mg/kg (gastric acid secretion [1]): 34%; inhibition in vivo at 16 mg/kg (gastric acid secretion [1]): 93% |
| O=S1(=O)N=C(NCCCOc2cccc(CN3CCCCC3)c2)c2cscc21 [Example 41] | – | 87% | 0.25 mg/kg | 91% | inhibition in vivo at 0.5 mg/kg (gastric acid secretion [1]; Dose 0.5 mg/kg): 37%; inhibition in vivo at 1 mg/kg (gastric acid secretion [1]): 84%; Kb (H2 histamine receptors; marked *, result of only one experiment, read-out: KB value): 5.94 nM; reduced gastric acid secretions (gastric acid secretion [2]; dose of 1 mg/kg, orally dosed): 82% |
| CN/C(=N/CCSCc1nc[nH]c1C)NC#N [cimetidine] | – | – | – | – | duration of action [3]: short duration of action; side effects [3]: anti-androgenic activity; also recorded: tendency to cause confusional states in elderly patients; ED50 (gastric acid secretion [2]): 6 mg/kg |
| CNC(=C[N+](=O)[O-])NCCSCc1ccc(CN(C)C)o1 [ranitidine, reference compound] | – | 43% | 2.3 mg/kg | – | – |

Second part, led by results:

| Kb (H2 histamine receptors; [4]) | Compound | inhibition in vivo at 4 mg/kg (gastric acid secretion [1]) | ED50 (gastric acid secretion [2]; [5]) | inhibition in vivo at 8 mg/kg (gastric acid secretion [1]) | other results |
| --- | --- | --- | --- | --- | --- |
| 15.8 nM | CCCN(CCC)Cc1cccc(OCCCNC2=NS(=O)(=O)c3ccccc32)c1.Cl [Example 18, N-[3-[3-[(dipropylamino)methyl]phenoxy]propyl]-1,2-benzisothiazol-3-amine 1,1-dioxide, hydrochloride] | – | 1.2 mg/kg | 67% | inhibition in vivo at 16 mg/kg (gastric acid secretion [1]): 89%; inhibition in vivo at 32 mg/kg (gastric acid secretion [1]; Dose 32 mg/kg): 90% |
| 25.1 nM | O=S1(=O)N=C(NCCCOc2cccc(CN3CCCC3)c2)c2ccccc21 [Example 20, N-[3-[3-(1-pyrrolidinylmethyl)phenoxy]propyl]-1,2-benzisothiazol-3-amine 1 ,1-dioxide, hydrochloride, 1/3 hydrate] | – | 1.4 mg/kg | – | inhibition in vivo at 2 mg/kg (gastric acid secretion [1]; Dose 2 mg/kg): 50% |
| 5.75 nM | Cl.O=S1(=O)N=C(NCCCOc2cccc(CN3CCCCCC3)c2)c2ccccc21 [Example 24, N-[3-[3-[(hexahydro-1H-azepin-1-yl)methyl]phenoxy]-propyl]-1,2-benzisothiazol-3-amine 1,1-dioxide, hydrochloride] | – | 1.2 mg/kg | 50% | – |
